From paper PMC8001506 (Marine Drugs, 2021)
Where a SMILES comes first, the peptide text is derived from it. Bridges are numbered along the chain shown (N, C = ends).

Experiments:
Test in all cases: cell-based
[1] = target: rat α6/α3β2β3 nAChR (Rattus norvegicus, UniProt P04757+P12390+P12391+P43143)
[2] = target: rat α3β2 nAChR (Rattus norvegicus, UniProt P04757+P12390)
[3] = target: rat α4β2 nAChR (Rattus norvegicus, UniProt P09483+P12390); assay type: cell-based
[4] = target: rat α3β4 nAChR (Rattus norvegicus, UniProt P04757+P12392); assay type: cell-based
[5] = target: rat α4β4 nAChR (Rattus norvegicus, UniProt P09483+P12392); assay type: cell-based
[6] = target: rat α2β2 nAChR (Rattus norvegicus, UniProt P12389+P12390); assay type: cell-based
[7] = target: human α9α10 nAChR (Homo sapiens, UniProt Q9GZZ6+Q9UGM1); assay type: cell-based
[8] = target: rat α2β4 nAChR (Rattus norvegicus, UniProt P12389+P12392); assay type: cell-based
[9] = target: rat α7 nAChR (Rattus norvegicus, UniProt Q05941); assay type: cell-based
rat α7 nAChR, sequence (Q05941 23-502 limits assumed): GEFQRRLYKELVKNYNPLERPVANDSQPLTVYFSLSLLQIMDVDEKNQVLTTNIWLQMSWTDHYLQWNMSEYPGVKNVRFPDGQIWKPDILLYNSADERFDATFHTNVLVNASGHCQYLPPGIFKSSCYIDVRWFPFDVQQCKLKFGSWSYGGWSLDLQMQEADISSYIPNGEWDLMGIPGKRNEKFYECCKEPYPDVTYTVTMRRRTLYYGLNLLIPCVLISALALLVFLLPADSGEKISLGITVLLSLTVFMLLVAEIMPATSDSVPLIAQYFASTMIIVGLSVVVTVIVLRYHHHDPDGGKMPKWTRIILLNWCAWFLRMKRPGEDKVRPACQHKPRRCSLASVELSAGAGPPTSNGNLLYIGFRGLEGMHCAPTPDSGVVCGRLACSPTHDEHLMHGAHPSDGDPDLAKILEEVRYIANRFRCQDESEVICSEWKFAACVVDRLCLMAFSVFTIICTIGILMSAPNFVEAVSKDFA

rat α4β2 nAChR, sequence (P09483 31-630 limits assumed): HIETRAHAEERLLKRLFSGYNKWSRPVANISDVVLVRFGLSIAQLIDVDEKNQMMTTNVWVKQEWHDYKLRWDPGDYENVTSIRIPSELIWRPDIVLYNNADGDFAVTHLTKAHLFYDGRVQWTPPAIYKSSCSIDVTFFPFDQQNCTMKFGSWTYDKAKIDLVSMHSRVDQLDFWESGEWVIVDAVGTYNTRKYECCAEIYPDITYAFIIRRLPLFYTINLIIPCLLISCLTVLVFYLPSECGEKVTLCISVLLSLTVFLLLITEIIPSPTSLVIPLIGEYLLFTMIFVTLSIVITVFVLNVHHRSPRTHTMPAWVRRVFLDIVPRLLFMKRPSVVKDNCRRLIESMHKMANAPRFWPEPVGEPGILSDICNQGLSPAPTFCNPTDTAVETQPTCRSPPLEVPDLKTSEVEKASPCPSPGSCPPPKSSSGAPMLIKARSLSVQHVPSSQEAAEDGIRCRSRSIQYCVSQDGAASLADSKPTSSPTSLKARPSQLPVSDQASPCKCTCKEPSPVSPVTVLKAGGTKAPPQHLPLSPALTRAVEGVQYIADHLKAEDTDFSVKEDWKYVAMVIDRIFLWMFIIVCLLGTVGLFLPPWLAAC
rat α4β2 nAChR, sequence (P12390 25-500 limits assumed): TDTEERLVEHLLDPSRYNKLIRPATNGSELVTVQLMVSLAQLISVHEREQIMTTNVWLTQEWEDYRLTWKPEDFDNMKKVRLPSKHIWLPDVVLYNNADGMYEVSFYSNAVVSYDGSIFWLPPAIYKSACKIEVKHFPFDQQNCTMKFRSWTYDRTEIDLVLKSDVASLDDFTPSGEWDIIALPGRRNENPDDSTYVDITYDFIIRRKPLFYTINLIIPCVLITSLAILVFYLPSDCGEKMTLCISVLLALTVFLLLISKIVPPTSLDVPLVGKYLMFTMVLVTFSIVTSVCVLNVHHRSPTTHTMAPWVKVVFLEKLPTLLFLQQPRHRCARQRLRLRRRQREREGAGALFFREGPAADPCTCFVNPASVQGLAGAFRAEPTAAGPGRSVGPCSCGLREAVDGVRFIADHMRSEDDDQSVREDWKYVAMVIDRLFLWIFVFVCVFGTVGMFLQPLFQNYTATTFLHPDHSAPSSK
rat α4β4 nAChR, sequence (P09483 31-630 limits assumed): as the sequence (P09483 31-630 limits assumed) above
rat α4β4 nAChR, sequence (P12392 21-495 limits assumed): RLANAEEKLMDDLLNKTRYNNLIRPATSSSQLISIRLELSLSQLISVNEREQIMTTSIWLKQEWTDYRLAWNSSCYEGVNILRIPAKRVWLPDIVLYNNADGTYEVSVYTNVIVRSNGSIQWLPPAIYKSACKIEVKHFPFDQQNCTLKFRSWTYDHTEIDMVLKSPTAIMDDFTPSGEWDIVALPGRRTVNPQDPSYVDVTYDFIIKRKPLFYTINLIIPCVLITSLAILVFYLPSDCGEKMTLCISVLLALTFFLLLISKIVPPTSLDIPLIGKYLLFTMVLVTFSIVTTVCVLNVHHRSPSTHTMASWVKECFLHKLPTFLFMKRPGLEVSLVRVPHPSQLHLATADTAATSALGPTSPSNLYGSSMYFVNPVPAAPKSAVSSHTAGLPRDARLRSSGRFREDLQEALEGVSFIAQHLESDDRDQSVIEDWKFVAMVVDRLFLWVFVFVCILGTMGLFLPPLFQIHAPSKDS
rat α2β2 nAChR, sequence (P12389 28-511 limits assumed): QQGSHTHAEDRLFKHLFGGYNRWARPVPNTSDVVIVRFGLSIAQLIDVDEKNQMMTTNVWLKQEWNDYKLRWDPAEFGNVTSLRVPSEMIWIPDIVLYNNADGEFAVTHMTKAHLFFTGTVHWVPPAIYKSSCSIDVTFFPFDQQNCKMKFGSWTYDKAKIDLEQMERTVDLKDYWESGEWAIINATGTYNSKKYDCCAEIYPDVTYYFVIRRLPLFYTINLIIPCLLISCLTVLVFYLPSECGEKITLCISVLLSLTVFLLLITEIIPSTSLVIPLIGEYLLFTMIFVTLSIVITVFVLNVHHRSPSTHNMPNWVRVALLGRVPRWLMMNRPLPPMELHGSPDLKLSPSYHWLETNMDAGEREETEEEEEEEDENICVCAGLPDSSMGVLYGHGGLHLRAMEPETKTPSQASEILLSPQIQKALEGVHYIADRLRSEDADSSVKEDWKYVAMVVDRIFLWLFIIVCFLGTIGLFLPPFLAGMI
rat α2β2 nAChR, sequence (P12390 25-500 limits assumed): as the sequence (P12390 25-500 limits assumed) above
rat α2β4 nAChR, sequence (P12389 28-511 limits assumed): as the sequence (P12389 28-511 limits assumed) above
rat α2β4 nAChR, sequence (P12392 21-495 limits assumed): as the sequence (P12392 21-495 limits assumed) above
rat α3β2 nAChR, sequence (P04757 26-499 limits assumed): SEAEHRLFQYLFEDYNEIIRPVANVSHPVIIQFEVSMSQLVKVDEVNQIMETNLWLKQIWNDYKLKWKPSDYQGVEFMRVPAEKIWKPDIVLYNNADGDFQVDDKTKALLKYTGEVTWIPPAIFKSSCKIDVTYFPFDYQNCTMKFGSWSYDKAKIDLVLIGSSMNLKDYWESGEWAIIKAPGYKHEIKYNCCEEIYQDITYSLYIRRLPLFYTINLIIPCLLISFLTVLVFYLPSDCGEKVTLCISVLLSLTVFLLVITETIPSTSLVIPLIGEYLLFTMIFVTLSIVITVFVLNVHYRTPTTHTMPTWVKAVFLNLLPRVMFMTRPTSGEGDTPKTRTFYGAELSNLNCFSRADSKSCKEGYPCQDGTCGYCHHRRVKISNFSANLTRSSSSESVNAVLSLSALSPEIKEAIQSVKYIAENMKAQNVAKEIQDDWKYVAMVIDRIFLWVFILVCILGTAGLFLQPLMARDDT
rat α3β2 nAChR, sequence (P12390 25-500 limits assumed): as the sequence (P12390 25-500 limits assumed) above
rat α3β4 nAChR, sequence (P04757 26-499 limits assumed): as the sequence (P04757 26-499 limits assumed) above
rat α3β4 nAChR, sequence (P12392 21-495 limits assumed): as the sequence (P12392 21-495 limits assumed) above
human α9α10 nAChR, sequence (Q9UGM1 26-479 limits assumed): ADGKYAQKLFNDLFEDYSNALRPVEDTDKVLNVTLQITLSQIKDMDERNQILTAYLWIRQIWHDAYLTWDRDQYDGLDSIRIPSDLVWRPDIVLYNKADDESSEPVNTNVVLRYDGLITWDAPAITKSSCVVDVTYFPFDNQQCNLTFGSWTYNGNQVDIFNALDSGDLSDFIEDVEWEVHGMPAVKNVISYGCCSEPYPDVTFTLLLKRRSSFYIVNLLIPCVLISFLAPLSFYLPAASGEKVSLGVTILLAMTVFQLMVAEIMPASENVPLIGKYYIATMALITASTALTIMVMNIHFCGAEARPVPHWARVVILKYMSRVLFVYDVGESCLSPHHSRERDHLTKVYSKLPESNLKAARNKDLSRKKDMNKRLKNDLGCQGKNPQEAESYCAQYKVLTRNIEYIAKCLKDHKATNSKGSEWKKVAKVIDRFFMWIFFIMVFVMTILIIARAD
human α9α10 nAChR, sequence (Q9GZZ6 25-450 limits assumed): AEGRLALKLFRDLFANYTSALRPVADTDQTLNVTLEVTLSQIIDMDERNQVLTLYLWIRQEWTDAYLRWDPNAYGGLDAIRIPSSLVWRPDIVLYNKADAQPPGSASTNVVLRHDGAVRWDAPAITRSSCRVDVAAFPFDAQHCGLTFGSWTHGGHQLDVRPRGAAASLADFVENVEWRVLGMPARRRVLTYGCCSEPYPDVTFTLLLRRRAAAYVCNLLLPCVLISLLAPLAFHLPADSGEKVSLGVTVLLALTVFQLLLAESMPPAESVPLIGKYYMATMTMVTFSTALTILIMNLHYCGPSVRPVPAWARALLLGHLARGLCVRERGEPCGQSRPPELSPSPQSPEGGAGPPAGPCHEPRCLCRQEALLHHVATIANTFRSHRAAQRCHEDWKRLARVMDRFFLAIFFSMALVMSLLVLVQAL

SMILES: CC(C)C[C@@H]1NC(=O)[C@H](CC(=O)O)NC(=O)[C@H](CO)NC(=O)[C@H](Cc2c[nH]cn2)NC(=O)[C@H](CCC(N)=O)NC(=O)[C@H](C(C)C)NC(=O)[C@H](CCC(N)=O)NC(=O)[C@@H]2CSSC[C@H](NC(=O)[C@@H](NC(=O)[C@H](CC(=O)O)NC(=O)[C@H](C)NC(=O)CNC(=O)[C@H](CO)NC(=O)[C@H](C)N)[C@@H](C)O)C(=O)N[C@@H](CSSC[C@@H](C(=O)O)NC1=O)C(=O)N[C@@H](CO)C(=O)N[C@@H](CC(N)=O)C(=O)N1CCC[C@H]1C(=O)N[C@@H](C)C(=O)N2 [CIC] (H-ASGADTCCSNPACQVQHSDLC-OH; disulfide 7-13, 8-21)
- IC50 [1]: 1.03 µM
- IC50 [2]: 3.51 µM
- IC50 [3]: > 10 µM
- IC50 [4]: > 10 µM
- IC50 [5]: > 10 µM
- IC50 [6]: > 10 µM
- IC50 [7]: > 10 µM
- IC50 [8]: > 10 µM
- IC50 [9]: > 10 µM
